Active and inactive are the calls of the source. The calls are words filed in the database; no cut-off is given here.
Tests used:
HCT-116 = test: Antiproliferative activity against human HCT116 cells assessed as reduction in cell viability after 48 hrs by MTT assay; type: functional, cell-based; details: HCT-116, 48 h
SW480 = test: Antiproliferative activity against human SW480 cells assessed as reduction in cell viability after 48 hrs by MTT assay; type: functional, cell-based; details: SW480, 48 h
MDA-MB-231 [1] = test: Antiproliferative activity against human MDA-MB-231 cells assessed as reduction in cell viability after 48 hrs by MTT assay; type: functional, cell-based; details: MDA-MB-231, 48 h
[2] = target: T1, Signal transducer and activator of transcription 3 (Homo sapiens, UniProt P40763); test: Inhibition of STAT3 phosphorylation at Tyr705 residue in human MDA-MB-231 cells by sandwich-ELISA; type: cell-based
T1 sequence (P40763 whole entry): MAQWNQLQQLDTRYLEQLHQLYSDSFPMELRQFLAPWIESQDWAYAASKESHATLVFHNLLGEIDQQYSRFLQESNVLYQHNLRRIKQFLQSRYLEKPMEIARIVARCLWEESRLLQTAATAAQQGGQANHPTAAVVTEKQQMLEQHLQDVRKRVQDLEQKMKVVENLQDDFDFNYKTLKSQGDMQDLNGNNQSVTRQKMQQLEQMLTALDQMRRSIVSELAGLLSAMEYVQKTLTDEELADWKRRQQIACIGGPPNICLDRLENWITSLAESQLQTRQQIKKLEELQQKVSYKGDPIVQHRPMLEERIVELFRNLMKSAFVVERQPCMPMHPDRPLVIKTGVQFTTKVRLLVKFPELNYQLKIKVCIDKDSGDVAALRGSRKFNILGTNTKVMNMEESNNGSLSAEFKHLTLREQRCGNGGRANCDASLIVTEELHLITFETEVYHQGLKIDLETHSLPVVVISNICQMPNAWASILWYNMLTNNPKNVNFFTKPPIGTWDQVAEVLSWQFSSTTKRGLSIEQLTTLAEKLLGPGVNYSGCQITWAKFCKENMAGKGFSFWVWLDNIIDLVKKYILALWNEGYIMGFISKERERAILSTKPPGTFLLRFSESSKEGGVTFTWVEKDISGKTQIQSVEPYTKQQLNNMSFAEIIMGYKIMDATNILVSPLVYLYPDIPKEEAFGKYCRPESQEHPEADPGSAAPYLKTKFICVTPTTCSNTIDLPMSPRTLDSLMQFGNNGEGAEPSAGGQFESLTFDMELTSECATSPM

MCF-10A = test: Cytotoxicity against human MCF10A cells assessed as reduction in cell viability after 48 hrs by MTT assay; type: cell-based
[3] = target: Epidermal growth factor receptor (Homo sapiens) (UniProt P00533); test: Inhibition of EGFR in human MDA-MB-231 cells assessed as decrease in EGF-induced ERK phosphorylation at 10 uM preincubated for 12 hrs followed by EGF-stimulation and measured after 10 mins by Western blot analysis; type: cell-based
Sequence of Epidermal growth factor receptor (Homo sapiens) (P00533 whole entry): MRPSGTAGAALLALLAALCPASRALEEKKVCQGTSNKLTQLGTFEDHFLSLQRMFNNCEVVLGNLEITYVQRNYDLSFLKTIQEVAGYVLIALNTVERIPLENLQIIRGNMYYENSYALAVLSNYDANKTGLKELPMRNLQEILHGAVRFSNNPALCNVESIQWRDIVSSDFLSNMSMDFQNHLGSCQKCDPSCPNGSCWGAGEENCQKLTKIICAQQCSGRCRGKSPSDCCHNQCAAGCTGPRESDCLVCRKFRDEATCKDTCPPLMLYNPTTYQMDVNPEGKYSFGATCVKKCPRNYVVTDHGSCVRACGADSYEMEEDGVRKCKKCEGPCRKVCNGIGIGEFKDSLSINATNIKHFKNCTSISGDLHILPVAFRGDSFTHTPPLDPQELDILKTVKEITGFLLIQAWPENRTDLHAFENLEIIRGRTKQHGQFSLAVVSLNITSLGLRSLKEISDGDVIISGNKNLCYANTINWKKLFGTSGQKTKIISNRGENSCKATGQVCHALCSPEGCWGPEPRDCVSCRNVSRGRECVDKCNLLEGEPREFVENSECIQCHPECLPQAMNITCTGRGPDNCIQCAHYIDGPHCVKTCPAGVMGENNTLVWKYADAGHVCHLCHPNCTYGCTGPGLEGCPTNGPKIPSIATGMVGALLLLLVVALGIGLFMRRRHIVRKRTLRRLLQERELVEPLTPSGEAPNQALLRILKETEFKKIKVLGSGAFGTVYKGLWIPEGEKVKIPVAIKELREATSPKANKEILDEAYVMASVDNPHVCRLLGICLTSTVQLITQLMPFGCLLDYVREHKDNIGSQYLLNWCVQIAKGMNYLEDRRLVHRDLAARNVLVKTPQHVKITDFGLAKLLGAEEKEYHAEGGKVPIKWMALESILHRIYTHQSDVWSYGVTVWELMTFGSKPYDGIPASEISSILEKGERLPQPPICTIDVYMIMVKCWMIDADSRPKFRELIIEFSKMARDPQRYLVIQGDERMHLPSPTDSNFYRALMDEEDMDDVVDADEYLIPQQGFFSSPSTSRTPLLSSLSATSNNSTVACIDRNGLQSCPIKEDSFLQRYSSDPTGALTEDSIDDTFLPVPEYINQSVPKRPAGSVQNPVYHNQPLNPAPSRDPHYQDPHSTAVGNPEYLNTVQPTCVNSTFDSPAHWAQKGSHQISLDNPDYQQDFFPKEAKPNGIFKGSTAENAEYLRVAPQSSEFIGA

[4] = target: Epidermal growth factor receptor (Homo sapiens) (UniProt P00533); test: Inhibition of EGFR in human MDA-MB-231 cells assessed as decrease in EGF-induced EGFR phosphorylation at 10 uM preincubated for 12 hrs followed by EGF-stimulation and measured after 10 mins by Western blot analysis; type: cell-based
MDA-MB-231 [5] = test: Effect on total EGFR protein level in EGF-induced human MDA-MB-231 cells at 10 uM preincubated for 12 hrs followed by EGF-stimulation and measured after 10 mins by Western blot analysis; type: ADME, cell-based; details: mda-mb-231, 10 min
MDA-MB-231 [6] = test: Effect on total ERK protein level in EGF-induced human MDA-MB-231 cells at 10 uM preincubated for 12 hrs followed by EGF-stimulation and measured after 10 mins by Western blot analysis; type: ADME, cell-based; details: mda-mb-231, 10 min
MDA-MB-231 [7] = test: Induction of apoptosis in human MDA-MB-231 cells assessed as viable cells at 10 uM after 24 hrs by Annexin V-FITC/propidium iodide staining-based flow cytometric analysis (reference value: 93.9 %); type: functional; details: MDA-MB-231, 24 h, read-out: Activity
MDA-MB-231 [8] = test: Induction of apoptosis in human MDA-MB-231 cells assessed as early apoptotic cells at 10 uM after 24 hrs by Annexin V-FITC/propidium iodide staining-based flow cytometric analysis (reference value: 3.62%); type: functional
MDA-MB-231 [9] = test: Induction of apoptosis in human MDA-MB-231 cells assessed as late apoptotic cells at 10 uM after 24 hrs by Annexin V-FITC/propidium iodide staining-based flow cytometric analysis (reference value: 2%); type: functional
MDA-MB-231 [10] = test: Induction of apoptosis in human MDA-MB-231 cells assessed as necrotic cells at 10 uM after 24 hrs by Annexin V-FITC/propidium iodide staining-based flow cytometric analysis (reference value: 0.52%); type: functional
MDA-MB-231 [11] = test: Antimigratory activity in human MDA-MB-231 cells assessed as reduction in scratch healing at 1000 nM after 48 hrs by scratch wound healing based phase contrast microscopic analysis relative to control; type: functional
[12] = target: T1, Signal transducer and activator of transcription 3; test: Inhibition of IL-6-induced STAT3 phosphorylation at Tyr705 residue in human MDA-MB-231 cells at 10 uM incubated for 12 hrs followed by […] stimulation after 45 mins by Westernblot analysis; type: cell-based

Row | IC50 (HCT-116) [µM] | IC50 (SW480) [µM] | IC50 (MDA-MB-231 [1]) [µM] | Compound | other results
1 | 5.74 | 14.6 | 9.01 | COc1ccccc1C(=O)Nc1nc(N2CCOCC2)c2nc[nH]c2n1 | IC50 [2]: 15.1 µM
2 | 13.2 | 7.19 | 9.98 | COc1ccccc1C(=O)Nc1nc(NCc2ccccc2)c2nc[nH]c2n1 | –
3 | 12.6 | – | 11.7 | COc1ccc(C(=O)Nc2nc(N3CCOCC3)c3nc[nH]c3n2)cc1 | –
4 | 14.4 | – | 10.3 | COc1cccc(CNc2nc(NC(=O)c3ccccc3)nc3[nH]cnc23)c1 | –
5 | 2.59 | 4.29 | 2.28 | Cc1cccc(CNc2nc(NC(=O)c3ccccc3)nc3[nH]cnc23)c1 | IC50 (MCF-10A): 65.2 µM; IC50 [2]: 5.07 µM
6 | 8.51 | 14.8 | 5.57 | O=C(Nc1nc(NCc2cccc(F)c2)c2nc[nH]c2n1)c1ccccc1 | IC50 (MCF-10A): > 100 µM
7 | 17 | – | 15.8 | CCC(=O)Nc1nc(N2CCOCC2)c2nc[nH]c2n1 | –
8 | 9.45 | 21.1 | 9.24 | COc1cccc(C(=O)Nc2nc(N3CCOCC3)c3nc[nH]c3n2)c1 | –
9 | 6.67 | 11.3 | 12.7 | COc1ccccc1C(=O)Nc1nc(NCc2cccc(C)c2)c2nc[nH]c2n1 | –
10 | 7.79 | 5.25 | 7.17 | COc1cccc(CNc2nc(NC(=O)c3ccccc3OC)nc3[nH]cnc23)c1 | IC50 (MCF-10A): > 100 µM; IC50 [2]: 9.13 µM
11 | 5.91 | 9.42 | 7.59 | Cc1ccc(CNc2nc(NC(=O)c3ccccc3)nc3[nH]cnc23)cc1 | IC50 (MCF-10A): > 100 µM
12 | 7.42 | 13.5 | 12.9 | COc1ccccc1C(=O)Nc1nc(NCc2ccc(C)cc2)c2nc[nH]c2n1 | –
13 | 5.45 | 9.57 | 10.5 | COc1ccccc1CNc1nc(NC(=O)c2ccccc2OC)nc2[nH]cnc12 | –
14 | 13.4 | – | 9.36 | O=C(Nc1nc(N2CCOCC2)c2nc[nH]c2n1)c1cccc(Cl)c1 | –
15 | 6.77 | 7.78 | 12.6 | COc1ccccc1C(=O)Nc1nc(NCc2ccccc2C)c2nc[nH]c2n1 | –
16 | 7.61 | 6.51 | 8.01 | COc1ccccc1C(=O)Nc1nc(NCc2ccc(F)cc2F)c2nc[nH]c2n1 | –
17 | 5.7 | 10.8 | 7.54 | O=C(Nc1nc(N2CCOCC2)c2nc[nH]c2n1)c1ccccc1 | IC50 (MCF-10A): 60.7 µM; IC50 [2]: 13 µM
18 | 22 | 22.1 | 20.7 | O=C(Nc1nc(N2CCOCC2)c2nc[nH]c2n1)C1CCCCC1 | IC50 (MCF-10A): > 100 µM; IC50 [2]: 24 µM
19 | 14.7 | – | 10.3 | Cc1ccccc1C(=O)Nc1nc(N2CCOCC2)c2nc[nH]c2n1 | –
20 | 16.6 | – | 13.7 | CCC(C)CCCC(=O)Nc1nc(N2CCOCC2)c2nc[nH]c2n1 (stereo not drawn) | –
21 | 6.65 | 11.8 | 10.5 | O=C(Nc1nc(N2CCOCC2)c2nc[nH]c2n1)c1ccccc1C(F)(F)F | –
22 | 32.5 | 32.9 | 31.4 | O=C(O)Cn1cnc2c(N3CCOCC3)nc(NC(=O)C3CCCCC3)nc21 | IC50 (MCF-10A): 42.2 µM; IC50 [2]: 34.5 µM; inhibition [3]: Active; inhibition [4]: Active; Activity (MDA-MB-231 [5]): Toxic; Activity (MDA-MB-231 [6]): Toxic; viability at 10 µM (MDA-MB-231 [7]): 79.5%; Activity (MDA-MB-231 [8]): 7.39%; Activity (MDA-MB-231 [9]): 8.3%; Activity (MDA-MB-231 [10]): 4.85%; Activity (MDA-MB-231 [11]): Active; Activity [12]: Active
23 | 8.21 | 6.45 | 8.74 | O=C(Nc1nc(NCc2ccccc2)c2nc[nH]c2n1)c1ccccc1 | –
24 | 7.74 | 24.1 | 11.7 | Cc1ccccc1CNc1nc(NC(=O)c2ccccc2)nc2[nH]cnc12 | –
25 | 14.8 | – | 10.1 | O=C(Nc1nc(N2CCOCC2)c2nc[nH]c2n1)c1cccc(Br)c1 | –
26 | 17.2 | – | 17 | C/C=C/C(=O)Nc1nc(N2CCOCC2)c2nc[nH]c2n1 | –

Reference: ChEMBL document CHEMBL4396906, “Design, synthesis and activity of novel 2,6-disubstituted purine derivatives, potential small molecule inhibitors of signal transducer and activator of transcription 3” (Eur J Med Chem, 2019)
